Blank lines part the entries; values can stand above or below the molecule they belong to.
Assays:
Mcl-1 [1] = molecular target: T1, Mcl-1 (Mus musculus, UniProt P97287); assay: Fluorescence change on complex formation with Mcl-1; conditions: binding to Mcl-1; intrinsic tryptophan fluorescence
T1 construct: with 151 N-terminal residues and 23 C-terminal residues removed; hexahistidine tag with thrombin cleavage site (N, cleaved yes); made in house; host or cells: Escherichia coli C41 (DE3)
Description: (§1) Intrinsic tryptophan fluorescence was also used to probe the structural changes in these proteins upon association.
(§2) Figure S4. Fluorescence spectra of Mcl-1 and PUMA peptide show Mcl-1 is folded, PUMA is unfolded and binding occurs. […]
(§3) fluorescence spectrum characteristic of buried tryptophans whereas PUMA (blue) […]
(§4) An increase in fluorescence is seen upon mixing 1 µM: 1 µM of Mcl-1 and PUMA peptide. 1:1 complex (black solid line) […]
(§5) a greater signal than the spectrum predicted for no interaction (dashed line), which is the sum of the PUMA alone (blue) and Mcl-1 alone (magenta) spectra.

Mcl-1 [2] = molecular target: T1, Mcl-1; assay: Viscosity dependence of association rate constant (glucose); assay type: binding; conditions: glucose as viscogen; relative rate constant vs relative viscosity
Description: We measured k+ in varying concentrations of the small-molecule viscogen glucose and the observed k+ did indeed match the predicted rate constant (k0η0/η) (Figure 2B) and produce the standard viscosity plot[37] (k0/k+ vs η/η0) with the expected slope for a ‘diffusion-limited’ reaction, ∼1 (Figure 2C).
(§6) Association kinetics were monitored by following the change in intrinsic fluorescence on an SX18 or SX20 stopped-flow spectrometer (Applied Photophysics). All PUMA solutions were incubated at 25 °C for 30 min before use to allow for dissociation of oligomers. Because of mixing artifacts, data collected before the first 5 ms were removed before fitting. Proteins were mixed at near equal (1–0.25 μM) concentrations. Association kinetics were analyzed using eq 3([51]) that describes irreversible association of two proteins at initial concentrations [A]0 and [B]0: [drawing 3] 3 where F is fluorescence, F0 the initial fluorescence, ΔF is the fluorescence amplitude of the reaction, [A]0 is the initial concentration of one protein, [B]0 the other, x = [B]0/[A]0, k+ is the association rate constant, and t is time. Where repeat measurements were made, standard errors are shown as error bars. Errors were propagated using standard equations.

Mcl-1 [3] = molecular target: T1, Mcl-1; assay: Temperature dependence of association rate constant; assay type: binding; conditions: stopped-flow fluorescence
Description: as §6

[4] = Intrinsic tryptophan fluorescence emission spectra; assay type: physicochemical; conditions: excitation at 280 nm; unbound
Description: as §1, §2, §3, §4, §5

Mcl-1 [5] = molecular target: T1, Mcl-1; assay: Stopped-flow fluorescence association kinetics of PUMA constructs with Mcl-1; assay type: binding; conditions: chemical denaturants, lowering total protein concentration, altering temperature
Description: The synthetic genes for truncated mouse Mcl-1 (UniProt P97287) with 151 N-terminal residues and 23 C-terminal residues removed (Figure S2C) and GB1-PUMA (Figure S2D) were obtained from Genscript. The genes were inserted into a modified version of the pRSET A vector that encodes an N-terminal hexahistidine tag with a thrombin cleavage site between the tag and the protein. Due to the cleavage of thrombin, a GS is added at the N-termini of Mcl-1. Protein expression was carried out in Escherichia coli C41 (DE3) grown in LB media at 37 °C. […] Identity was confirmed using mass spectrometry, the concentration of GB1-PUMA was determined by the method of Gill von Hippel,[36] and the concentration of Mcl-1 was determined using amino acid analysis.
Mouse PUMA peptide, residues 128–161 (Uniprot Q99ML1) with the M144I mutation used in the NMR structure 2ROC[26], together with N-terminal acetylation and C-terminal amidation, was synthesized by Selleck Chemicals. […] Peptide concentration was determined using amino acid analysis and identity confirmed using mass spectrometry. […]
Association kinetics were monitored by following the change in intrinsic fluorescence on an SX18 or SX20 stopped-flow spectrometer (Applied Photophysics). […] Association kinetics were analyzed using eq 3([51]) that describes irreversible association of two proteins at initial concentrations [A]0 and [B]0: [drawing 3] […]

Mcl-1 [6] = molecular target: T1, Mcl-1; assay: Circular dichroism of 1:1 complex with Mcl-1; assay type: binding; conditions: CD
Text: (§7) CD scans were taken in an Applied Photophysics Chirascan, using 10 to 2 mm path length cuvettes. Percentage helicity calculated using the mean residue ellipticity at 222 nm.[24]

[7] = PUMA peptide oligomerization (CD, size-exclusion chromatography, SDS-PAGE); assay type: physicochemical
Text: as §7
Figure S3. PUMA peptide undergoes reversible oligomerization to an α-helical structure. (a) The Circular dichroism spectra of the PUMA peptide becomes more α-helical at higher concentrations, consistent with the formation of an α-helical oligomer.
(b) Oligomers are visible on denaturing SDS-PAGE gel of PUMA peptide at ~10-100 µM concentrations. White numbers refer to elution volumes from FPLC trace (c). (c) […]
PUMA oligomers (i), for comparison a trace for a similar size monomeric peptide is […]
-200 Monomeric BH3 peptide
(1 picture or pasted object on this page, not shown here)

Mcl-1 [8] = molecular target: T1, Mcl-1; assay: Urea dependence of association rate constant; assay type: binding
Text: Urea is a denaturing cosolvent used in protein folding studies to energetically disfavor structured states. […] However, increasing urea concentrations also makes solutions more viscous. […] Further, the natural log of k+ against concentration of urea is linear, with a gradient of m = 0.55 (±0.02) M^–1 (Figure 3D).
as §6

[9] = Circular dichroism, unbound PUMA helicity; assay type: physicochemical; conditions: CD
Description: as §7
Figure S9. Changes in helicity of PUMA peptide with solvent and temperature.
Due to the oligomerization of the PUMA peptide circular dichroism (CD) was recorded at the low concentration of 1 µM with a 10 mm pathlength cuvette to maximize signal.
Errors due to buffer subtraction and high absorbances prevent quantitative analysis of these spectra. However, each individual figure was recorded on the same day so qualitative conclusions can be drawn. (a) The helicity of the PUMA peptide is highly temperature dependent, with lower temperatures favoring helical conformations. (b) Increasing concentration of the denaturant urea results in the disfavoring of helical […]
significant change in CD signal.

Mcl-1 [10] = molecular target: T1, Mcl-1; assay: Ionic strength dependence of association rate constant (fit to eq 4); assay type: binding
Description: Unless otherwise stated, experiments were carried out in 50 mM sodium phosphate, pH 7.0. For the ionic strength dependence of association protein and peptide were exchanged to the low ionic strength 10 mM MOPS, pH 7.0, buffer (I = 0.004 M) and then ionic strength was controlled using [NaCl]. NaOH was titrated to maintain neutral pH upon addition of NaCl.
as §6, with “equations. […]” for “equations.”

folded Bcl-2 members = conditions: cited from earlier work
Text: The binding of BH3 regions to folded Bcl-2 family members is, due to their important physiological role and the large number of homologues, one of the most heavily studied coupled folding and binding reactions, particularly with respect to equilibrium binding constants obtained and structures solved.[21],[29] BH3 peptides have potential therapeutic value and have been the focus for the design of peptide-based mimics, including hydrocarbon staples,[42] α/β-peptides,[43] miniature proteins[44] and photoswitchable peptides.[45] To understand the general principles of binding, knowledge of kinetic ...

[11] = molecular target: truncated mouse Mcl-1 (induced myeloid leukemia cell differentiation protein), 151 N-terminal and 23 C-terminal residues removed (mouse) (UniProt P97287); assay: stopped-flow fluorescence kinetics; intrinsic fluorescence; protein and peptide mixed at near equal concentrations (1-0.25 uM), also pseudo-first-order conditions; 50 mM sodium phosphate, pH 7.0; fit to irreversible association (eq 3)
[12] = molecular target: T2, truncated mouse Mcl-1 (induced myeloid leukemia cell differentiation protein), 151 N-terminal and 23 … (mouse, UniProt P97287 152-308); assay: as above; conditions: both partners purified
[13] = molecular target: T2, truncated mouse Mcl-1 (induced myeloid …); assay: fluorescence kinetics after manual mixing; Mcl-1 and PUMA solutions manually mixed at nanomolar concentrations, fluorescence followed; fit to a model with association and dissociation; conditions: both partners purified
[14] = molecular target: the molecule itself; assay: SEC + other: concentration dependent circular dichroism and denaturing SDS-PAGE; PUMA peptide alone at concentrations above 2 uM; reversible oligomerization
[15] = Mcl-1 urea unfolding by intrinsic tryptophan fluorescence; assay type: physicochemical, mouse; conditions: 1 µM Mcl-1, 25 °C, 50 mM PO4 pH 7.0, excitation 280 nm, emission 360 nm
Description: Figure S8. Mcl-1 remains folded up to 3.5 M urea. Mcl-1 fraction folded calculated
from the intrinsic tryptophan fluorescence of Mcl-1 (1 µM Mcl-1, 25 °C, 50 mM PO 4
pH 7.0, excitation at 280 nm, 10 nm pathlength, emission at 360 nm, 5nm pathlength).

slope of viscosity plot (k0/k+ vs η/η0) (Mcl-1 [2]): 1.13 ± 0.02 | fluorescence emission maximum [4]: 360 nm | concentration above which reversible oligomerization to highly α-helical structure occurs ([7]; concentration dependent CD, size-exclusion chromatography and denaturing SDS-PAGE): above 2 μM | concentration at which oligomers are visible on gel ([7]; denaturing SDS-PAGE): 10 to 100 µM | m, gradient of ln(k+) against urea concentration (Mcl-1 [8]; urea 0 upward, stopped-flow): 0.55 (±0.02) M^–1 | change in helicity with temperature ([9]; 1 µM, 10 mm pathlength cuvette, 15–60 °C, qualitative): less helical at higher temperatures | residual helicity in the unbound state ([9]; mean residue ellipticity at 222 nm, 50 mM PO4, pH 7.0, 25 °C): ~20% | rate constant in the absence of long-range electrostatics k+basal (Mcl-1 [10]; 10 mM MOPS, pH 7.0 (I = 0.004 M), ionic strength controlled with NaCl, fit to eq 4, a set to 6 Å): 6 (±1) × 10^5 M^–1 s^–1 | kon (Mcl-1 [10]; read-out: association rate constant k+ at high ionic strength): 100000 to 1e+06 M⁻¹ s⁻¹
Molecule: Ac-VEEEEWAREIGAQLRRIADDLNAQYERRRQEEQH-NH2 [PUMA peptide]
overall fluorescence change upon complex formation (Mcl-1 [1]): significant increase in overall fluorescence upon complex formation | effect of temperature on association (Mcl-1 [3]): An increase in temperature accelerates association | dissociation of preformed Mcl-1 PUMA complex (Mcl-1 [5]): No solvent conditions could be found where preformed Mcl-1 PUMA complex could be observed to dissociate without unfolding the structured Mcl-1 | helicity on binding Mcl-1 (Mcl-1 [6]): increased α-helicity relative to the two proteins in isolation | effect of urea on k+ (Mcl-1 [8]; increasing urea, compared with prediction from viscosity k0η0/η): decreased by significantly more than what would be expected due to viscosity effects alone | change in intrinsic helicity with ionic strength and urea ([9]; 1 µM, 10 mm pathlength cuvette, urea 0–3 M, I 4–214 mM, qualitative): showed little ionic strength dependence but was reduced in the presence of urea | affinity for folded Bcl-2 members relative to other BH3 peptides (folded Bcl-2 members): greater affinity than most other BH3 peptides

kon [11]: 1.29e+07 M⁻¹ s⁻¹
Molecule: GB1-PUMA: 90 aa chain containing a soluble GB1 domain fused to the N-terminus of the 34 aa PUMA peptide (from UniProt Q99ML1 128-161)

kon [12]: 1.59e+07 M⁻¹ s⁻¹ | Kd [13]: 100 pM | koff [13]: 0.0016 s⁻¹
Molecule: Ac-VEEEEWAREIGAQLRRIADDLNAQYERRRQEEQH-NH2 (peptide, UniProt Q99ML1 128-161, looked up) [Mouse PUMA peptide, residues 128-161, M144I, N-terminal acetylation and C-terminal amidation]
binding result [14]: binds

B1: Mcl-1: truncated mouse Mcl-1 (UniProt P97287) with 151 N-terminal residues and 23 C-terminal residues removed; GS added at N-terminus (protein)
chain: GSEDDLYRQSLEIISRYLREQATGSKDSKPLGEAGAAGRRALETLRRVGDGVQRNHETAFQGMLRKLDIKNEGDVKSFSRVMVHVFKDGVTNWGRIVTLISFGAFVAKHLKSVNQESFIEPLAETITDVLVRTKRDWLVKQRGWDGFVEFFHVQDLEGG
modifications: left off: His6, N-terminal, cleaved
notes: truncated mouse Mcl-1 (UniProt P97287) with 151 N-terminal residues and 23 C-terminal residues removed; GS added at N-terminus
fluorescence emission maximum [4]: 330 nm | urea concentration up to which protein remains folded [15]: 3.5 M
